# Where “and” joins values, the source holds several entries; their conditions need not be identical. Identical values can stand only once.
# Tests used:
# [1] = system: SCC-25 cells; assay: Sonodynamic cytotoxicity, MTT test; assay type: cell-based, human; details: 40 µM, 8 h, then US 3 min, 3 MHz, 0.8 W/cm^2; MTT 6 h later; compared to untreated cells
# [2] = Stress test: oxidative degradation (RP-HPLC); assay type: physicochemical; details: for ICH Classification: oxidising environment
# Procedure: Stock solutions of the test substances (2 or 6) were prepared by dissolving 1 mg of each test substance in 1.5 mL of a mixture of DMSO and MeOH (1:6, v/v). Then, 2 mL solutions of compounds 2 and 6 were prepared at ~30 μg/mL in a hydrogen peroxide solution (1, 3, and 10%). The solutions were placed in dark glass vials and encapsulated, and after an appropriate time (Table 1) the samples were diluted with methanol (1:1, v/v) and transferred to the chromatographic column.
# [3] = Photostability in the solutions (RP-HPLC); assay type: physicochemical; details: MeOH solution; for % Decomposition / Ct: 1.2 × 10^6 lux·h, 22 h; for ICH Classification: light
# Procedure: However, as a result of the action of light, both compounds degraded completely (Table 6, Figure 12). The study was conducted in methanol solutions, irradiated in quartz cuvettes, and in solutions protected from light (aluminium foil). […] During irradiation, the temperature in the Suntest chamber was 35 °C. It was, therefore, concluded that both compounds are photolabile in solutions. […] The visible peaks with Rt values of 6.3 (Figure 12a,c) and 4.4 min (Figure 12b,d) were impurities of compounds 2 and 6, respectively.
# Stock solutions of the test substances (2 or 6) were prepared by dissolving 1 mg of each test substance in 1.5 mL of a mixture of DMSO and MeOH (1:6, v/v). Then, 5 mL solutions of the tested compounds (c ~ 15 µg/mL) in MeOH were prepared. […] Each of the samples (protected and irradiated) was transferred to the chromatographic column. Samples before irradiation were also subjected to chromatographic analysis (t = 0) (Table 2).
# [4] = target: T1, catalase (CAT) (Aspergillus niger, UniProt P55303); assay: Effect on CAT activity; assay type: biochemical; details: samples 3 mM/dm^3 in DMSO, 0.01 mL; mean ± SEM, n = 3
# T1 construct: purchased Sigma C3515
# T1 sequence (P55303 whole entry): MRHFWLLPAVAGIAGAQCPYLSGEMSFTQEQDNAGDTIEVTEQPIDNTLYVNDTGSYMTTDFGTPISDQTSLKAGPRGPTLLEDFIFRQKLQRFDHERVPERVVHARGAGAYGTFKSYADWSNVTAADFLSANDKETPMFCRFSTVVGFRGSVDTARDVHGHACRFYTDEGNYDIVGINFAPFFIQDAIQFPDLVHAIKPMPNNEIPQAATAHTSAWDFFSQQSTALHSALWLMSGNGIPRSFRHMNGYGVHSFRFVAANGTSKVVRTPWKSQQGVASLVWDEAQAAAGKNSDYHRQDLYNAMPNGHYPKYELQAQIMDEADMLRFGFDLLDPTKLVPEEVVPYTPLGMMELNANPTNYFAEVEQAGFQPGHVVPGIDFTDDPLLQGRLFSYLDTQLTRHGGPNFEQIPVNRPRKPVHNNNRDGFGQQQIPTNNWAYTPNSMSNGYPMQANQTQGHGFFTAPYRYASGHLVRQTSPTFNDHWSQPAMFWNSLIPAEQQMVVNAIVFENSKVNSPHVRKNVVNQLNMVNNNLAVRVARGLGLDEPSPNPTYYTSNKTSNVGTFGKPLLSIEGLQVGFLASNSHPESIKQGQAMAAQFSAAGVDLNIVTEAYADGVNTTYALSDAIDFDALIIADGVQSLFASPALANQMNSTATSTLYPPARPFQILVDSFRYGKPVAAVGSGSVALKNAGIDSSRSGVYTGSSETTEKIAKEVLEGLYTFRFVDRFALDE
# Procedure: The samples were dissolved in DMSO (Sigma D4540) to obtain a concentration of 3 mM/dm^3.
# The method used by Watanabe et al. was used with the following modifications. The reaction mixture was composed of 0.02 mL of EDTA solution (56.5 mM), 0.01 mL of ^the sample, 0.02 mL of 3% H2O2 solution (Sigma H1009), and 0.02 mL of catalase solution (4000-fold diluted, Sigma C3515) (all reagents except the tested sample were diluted in TRIS buffer, pH 7.0, 1 mol/dm^3). The volume was completed to 0.31 mL by the same buffer solution. In a blank sample, DMSO (Sigma D4540) replaced the tested sample. The background of the sample was measured in a mixture composed of 0.01 mL of the sample completed to 0.31 mL by the buffer. The absorbance was read at 240 nm directly after the mixing and after 5 min of incubation (room temperature). The decreased absorbance (depletion of H2O2) in the tested and blank samples was compared. The calibration curve was produced using eleven H2O2 solutions (0.5693–5.693 mM/dm^3). The results are expressed in % inhibition and as H2O2 depletion (mmol of depleted H2O2/dm^3 min).
# [5] = system: SOD2 gene; design: method as in PMID 37779412; details: qRT-PCR ref 35; cited from earlier work
# [6] = protected from light (aluminium foil), 35 °C
Structure (SMILES),"Reduction of viability of SCC-25 cells, compound combined with US [1]","% Decomposition ([2]; H2O2 1%, 30 min) [%]","Ct ([2]; H2O2 1%, 30 min) [µg/mL]","% Decomposition ([2]; H2O2 3%, 24 h) [%]","Ct ([2]; H2O2 3%, 24 h) [µg/mL]","% Decomposition ([2]; H2O2 10%, 24 h) [%]","Ct ([2]; H2O2 10%, 24 h) [µg/mL]","ICH Classification ([2]; H2O2 10%, 24 h)",% Decomposition ([3]; not protected) [%],Ct ([3]; not protected) [µg/mL],"% Decomposition [3, 6]","Ct [3, 6] [µg/mL]",ICH Classification [3],CAT Inhibition (%) [4] [%],CAT Inhibition of the H2O2 Depletion [4] [mm/dm^3/min],Decrease of expression of the SOD2 gene compared to the control [5] [%]
"COc1cc(C=CC(=O)c2ccccc2)ccc1OC(=O)C(C)c1ccc(CC(C)C)cc1 (stereo not shown) [Compound 2, 2-Methoxy-4-(3-oxo-3-phenylprop-1-en-1-yl)phenyl-2-(4-isobutylphenyl)-propionate]",significantly reduced viability,<0.5,29.9,<0.5,29.8,<0.5,30.1,practically stable,100,0,68% and 68.2%,4.8,Photolabile,,,
"COc1ccc(C=CC(=O)c2ccccc2)cc1OC(=O)C(C)c1ccc(CC(C)C)cc1 (stereo not shown) [Compound 6, 2-Methoxy-5-(3-oxo-3-phenylprop-1-en-1-yl)phenyl-2-(4-isobutylphenyl)-propionate]",,<0.5,29.7,<0.5,29.9,<0.5,30.0,practically stable,100,0,7.9%,13.8,Photolabile,41.9 ± 1.2,0.15 ± 0.01,65.20

# — PMC10535624, “Curcuminoid Chalcones: Synthesis, Stability, and New Neuroprotective and Sonosensitising Activities” (Pharmaceuticals, 2023)
